The compounds below were run on Plasmodium falciparum (assay: GSK_TCMDC: Inhibition of Plasmodium falciparum 3D7 in whole erythrocytes, using parasite LDH activity as an index of growth.). Conditions: Plasmodium falciparum, 3D7.
Type: functional, organism-based

Compound	XC50 [nM]
Nc1ncc(-c2ccsc2)c2ccc(-c3cnc[nH]3)cc12	573
Cc1c(CCc2cccc(F)c2F)[nH]c2ccccc2c1=O	822
COc1ccc(O)c(-c2sc(N=C(N)N)nc2-c2ccccc2)c1	372
CCc1c(CCNCCCC(C)CCNCCc2ccc(OC)c(OC)c2CC)ccc(OC)c1OC (configuration not stated)	1110
O=C(NCCN1CCCC1)c1cc(-c2ccc(Cl)c(O)c2)c(-c2ccncc2)o1	1630
COc1cccc2c(NN=Cc3cccc(Cl)c3)cc(C)nc12	709
Cc1nc(N2CCC(C)CC2)c2c3c(sc2n1)CCCC3	1060
Cc1cc(N2CCCN(CC3CCCCC3)CC2)nc(Nc2ccc(Br)cc2)n1	943
O=C1Nc2cccc3c2C1(CCCCCN1CCC(c2c[nH]c4ccncc24)CC1)CCC3 (configuration not stated)	990
CNCCN(C)C(=O)Oc1c(Br)c(C)nc(C)c1-c1ccc(Oc2ccc(OC(F)(F)F)cc2)cc1	109
COc1cc2nccc(Nc3cccc(Oc4ccccc4)c3)c2cc1OC	643
COCCNCc1cccc(-c2ccc3c(Nc4ccc(Oc5ccccc5)cc4)ccnc3c2)c1	517
Cc1ccc(/C=C/C(=O)NCCCCCN2CCN(C(=O)Nc3ccc(Cl)c(C(F)(F)F)c3)CC2)cc1	1110
Nc1nc(N)c2c3c(cnc2n1)CCCC3	770
Cc1nc(-c2cccc(Nc3nccc(NCC(O)c4ccccc4C)n3)c2)cs1 (configuration not stated)	890
COc1cc(C)c(C(O)CNC(C)CCc2ccccc2)cc1C (configuration not stated)	730
COc1ccc2ncc(C#N)c(CCN3CCC(NCc4ccc5c(c4)OCCO5)CC3)c2c1	910
CC[C@H]1CN2CC[C@H]1C[C@H]2[C@H](O)c1cc(/C=C/c2ccccc2)nc2ccc(OC)cc12	42.7
Cc1cccc2nc(-c3ccc(-c4cccc(NC(=O)NCc5cccc(F)c5)c4)s3)[nH]c12	760
Cc1cc(NCCC(=O)Nc2ccccc2)nc(NCC2CCCCC2)n1	841
CCC(C)Oc1ccc(CCCON2C(N)=NC(N)=NC2(C)C)cc1 (configuration not stated)	3.2
C=CCc1cc(Cc2cnc(N)nc2N)cc(CCC)c1OC	1360
CCn1c(SCC(=O)Nc2cc(C(F)(F)F)ccc2Cl)nc2ccccc2c1=O	397
CC(C)(C)c1ccc(Cn2c(=N)n(CC(=O)c3ccc(-c4ccccc4)cc3)c3ccccc32)cc1	158
COc1ccc(Nc2ccnc3cc(-c4ccccn4)ccc23)cc1OC	31.8
Nc1nccc2ccc(-c3cccnc3)cc12	419

Compound	XC50 [nM]
COc1ccc(-c2cc3ncnc(N4CCN(CCN5CCCC5)CC4)c3s2)cc1	831
O=C(N[C@@H](Cc1ccccc1)CN1CCC(Oc2ccc(F)cc2)CC1)c1ccc(OCCCN2CCCCC2)cc1	885
CNC(=O)c1cnc(Nc2ccc(N3CCOCC3)cc2)nc1Nc1cccc(O)c1	808
CC(C)COc1ccc(Cl)cc1Cc1nc(-c2nc3ccc(CN4CCCCC4)cc3[nH]2)co1	738
CCOc1cc(C(=O)N[C@@H](Cc2ccccc2)[C@H](O)CNCc2cc(OC)cc(OC)c2)cc(N2CCCCS2(=O)=O)c1	519
O=S(=O)(Nc1cccc(CCN2CCC(N3CCCCC3)CC2)c1)c1ccc(-c2ccccc2)cc1	1120
Cc1[nH]c(CNCCCNc2cc(=O)c3ccccc3[nH]2)c(Br)c1Br	1040
Cc1ccc(CNC(=O)[C@H](CCCN)Nc2nc(Nc3ccccc3)ncc2C)cc1	1530
CCOc1ccc(-c2nonc2NC(=O)c2ccco2)cc1OCC	750
Cc1ccc(OCCCON2C(=N)N=C(N)NC2(C)C)cc1C	3.2
CC(NCCc1cccc(Cl)c1)C(O)c1ccc(OCCCCCCOc2ccc(C(O)C(C)NCCc3cccc(Cl)c3)cc2)cc1 (configuration not stated)	399
COc1ccc(CC(C)NCC(O)c2ccc(Cl)c(Cl)c2)cc1 (configuration not stated)	717
Cc1cc(NCc2ccc(F)cc2)nc2cc(O)ccc12	762
COc1ccc(Oc2cnc(N)nc2N)c(C(C)C)c1	740
Cc1ccc(CN2CCC(Oc3cccc(NC(=O)c4ccc(C(F)(F)F)cc4)c3)CC2)cc1	1020
Fc1ccc(Nc2ccnc3cc(I)ccc23)c(Cl)c1	1080
CC(C)COc1ccc(Cl)cc1Nc1nc(-c2nc3ccccc3[nH]2)cs1	877
COc1ccc(C2c3cc(OC)c(OC)cc3C(=NO)C2C)cc1OC (configuration not stated)	1170
CCc1ccc(O)c(-c2cc(C(=O)Nc3cccnc3)[nH]n2)c1	689
CC(C)c1ccc(S(=O)(=O)Nc2cccc(CCN3CCC(N4CCCCC4)CC3)c2)cc1	1120
O=C(Nc1ccc(-c2ccc(-c3nc4ccccc4[nH]3)s2)cc1)Nc1ccc(Cl)c(Cl)c1	165
CCCCC1=CC2C(=O)C(C(=O)OC)=CN=C2C=C1OCc1ccccc1 (configuration not stated)	42.2
Cc1cc(Nc2ccc(Cl)c(Cl)c2)n2nc(C)nc2n1	258
CC(=O)Oc1cc(C(=O)Nc2ccc(Cl)cc2)cc2ccccc12	856
COc1cccc(-c2nn(C)c3sc(C(=O)NCCN(C)Cc4ccccc4)cc23)c1	814
O=C(Nc1ccc(C(=O)Oc2ccc(-c3ccccc3)cc2)cc1)N[C@@H](Cc1ccc(O)cc1)C(=O)NC1CCN(Cc2ccc(O)cc2)C1 (some centres not stated)	803

Compound	XC50 [nM]
Cn1c(=N)n(CC(=O)OCc2ccc(OCc3ccccc3)cc2)c2ccccc21	81.9
COc1nc(Nc2cccc(C)c2)nc(OC)n1	1010
COc1ccc(C(O)CNC(C)CCc2ccccc2)cc1C(F)(F)F (configuration not stated)	70.4
Cc1cc(=NN=Cc2ccccc2Cl)c2cc(F)ccc2[nH]1	750
Cc1cc(NC(=O)c2cccs2)ccc1OC1CCN(Cc2ccc(C#N)cc2)CC1	721
O=C(c1ccc([N+](=O)[O-])o1)N1CCC(Cc2ccc(C(F)(F)F)cc2)CC1	166
O=C(/C=C/c1ccc(Cl)c(Cl)c1)NCCCCCCN1CCN(C(=O)Nc2ccc(Cl)c(C(F)(F)F)c2)CC1	526
CC(=O)c1ccc(N2C(=O)C3C(Cc4ccc(OC(C)(C)C)cc4)NC4(C(=O)N(Cc5ccc(C(C)(C)C)cc5)c5ccccc54)C3C2=O)cc1 (configuration not stated)	1280
Cc1[nH]c(C)c(-c2ccc(Oc3ccc(Cl)cc3)cc2)c(=O)c1Cl	787
COc1ccc(S(=O)(=O)N(CCCN2CCN(C)CC2)Cc2csc(-c3ccc(CNCc4ccccc4)cc3)n2)cc1	949
COc1cccc(CNC(=O)NC2CCN(c3ccnc(Nc4cc(OC)c(OC)c(OC)c4)n3)C2)c1 (configuration not stated)	713
COc1ccc(CNC(=O)NC2CCN(c3ccnc(Nc4cc(OC)c(OC)c(OC)c4)n3)C2)cc1 (configuration not stated)	946
Cc1cc(OCCCN2CCC(NS(=O)(=O)c3cccc(Br)c3)CC2)c2ccccc2n1	1110
Cc1nn(-c2cccc(C(F)(F)F)c2)c2sc(C(=O)NC3CCN(C(C)C)CC3)cc12	898
CCC(C)CN1CCN(c2cc(NC(=O)c3cccs3)ccn2)C(C)C1 (configuration not stated)	997
Cc1ccc(NC(=O)Nc2ccc(Cl)c(C(F)(F)F)c2)cc1-c1ccc(C(=O)NCCN2CCOCC2)cc1	811
CCOc1ccc(-c2cc3nc(C4CCNCC4)c(C(=O)Nc4ccc(C)cc4Cl)cn3n2)cc1	919
Fc1ccc(COc2ccc(Nc3ncnc4ccc(I)cc34)cc2Cl)cc1	1180
O=C(COc1ccc(F)cc1)NC1CCN(c2ccnc3cc(Cl)ccc23)C1 (configuration not stated)	265
COc1ccc2nccc([C@@H](O)CN3CCC(NCc4nc5cc(F)cc(F)c5[nH]4)CC3)c2c1	573
N#Cc1ccc2c(c1)CCN(CCC1CCC(Nc3ncnc4ccccc34)CC1)C2 (configuration not stated)	635
COc1cc2nc(N3CCC(CNCc4ccc(-c5ccc(C(F)(F)F)cc5)cc4)CC3)nc(N)c2cc1OC	86.9
C[C@@H](NC(=O)NC(CCN1CCC2(CC1)CN(S(C)(=O)=O)c1ccccc12)c1ccc(Cl)c(Cl)c1)c1ccccc1 (some centres not stated)	903
CCCCCCCc1[nH]c2ccccc2c(=O)c1C	509
S=C(NCCCCCN1CCC(c2c[nH]c3ccccc23)CC1)Nc1ccc(Cl)c(Cl)c1	709
CC(c1cccc(Nc2nccc(-c3c(-c4cccc(NC(=O)c5c(F)cccc5F)c4)nn4ncccc34)n2)c1)S(C)(=O)=O (configuration not stated)	45.6

Compound	XC50 [nM]
Cn1cnnc1Sc1ccc(CN2CCOc3ccc(C4=CCCCC4)cc3C2)o1	849
COC(=O)c1sc(-c2ccc(Cl)cc2)cc1N(CCCN1CCC(N2CCCCC2)CC1)S(=O)(=O)c1ccc(C)cc1	744
COc1ccc(Nc2nc(C)cc(NCc3ccc(-c4c(C)noc4C)cc3)n2)cc1	844
CC(C)NCc1cccc(-c2cccc(NC(=O)c3cccc(C#N)c3)c2)c1	823
CCOc1ccc(Nc2ccc3nonc3c2S(=O)(=O)Nc2ccc(OCC)cc2)cc1	505
CCOc1ccc(N(CC)S(=O)(=O)c2cc(Br)cc3c2N(C(=O)C2CC2)CC3)cc1	134
CCCNC(=O)Nc1cc2cc(-c3ccc(CN4CCCC4)cc3)ccc2n2c(C)nnc12	1500
CC(=O)Nc1ccc(OCCN(CC(C)C)c2ccc(C(F)(F)F)c(C#N)c2)c(Cl)c1	308
NC(=O)c1cccc(CNCc2ccc(-c3cccc(-c4nc5ccccc5[nH]4)c3)cc2)c1	592
CCOC(=O)c1ccc(-c2cnoc2-c2cc(CC)c(OC)cc2O)o1	275
Cc1cc(CN2C(=O)C(c3ccccc3)(c3ccccc3)N=C2N)c(C(F)(F)F)o1	956
COc1ccccc1CNC(=O)c1cc(Br)cc(N2CCN(c3ccncc3)CC2)c1	946
Cc1ccc2c(O)c([N+](=O)[O-])c(O)nc2c1	422
CN1CCN(CC(O)CNC(=O)Nc2ccc(Cl)cc2)CC1 (configuration not stated)	230
CN(C1CCC(NC(=O)/C=C/c2ccccc2)CC1)C1CC2(CCN(C(=O)OC(C)(C)C)CC2)c2ccccc21 (configuration not stated)	822
CCN(CC)CCCC(C)Nc1c2ccccc2nc2ccc3ccccc3c12 (configuration not stated)	1040
Oc1ccccc1CCNCC1CCc2ccccc2C1 (configuration not stated)	689
COC(=O)C1=C(C)NC2=C(C(=O)CC(c3ccc(OC)c(OC)c3)C2)C1c1cccc(O)c1 (configuration not stated)	729
Cc1[nH]c(C)c(-c2ccc(OCc3ccc(F)cc3)nc2)c(=O)c1Br	203
CC(=O)c1ccc2c(c1)CCN(CCC1CCC(NC(=O)c3cc4ccccc4[nH]3)CC1)CC2 (configuration not stated)	982
COc1ccc(C2=C(Nc3ccc4oc5ccccc5c4c3)c3ccccc3C2=O)cc1	830
Nc1ncnc2cc(-c3cccc(S(N)(=O)=O)c3)sc12	151
COc1ccccc1C1CCN(C2CCC(NC(=O)/C=C/c3cccc(Cl)c3F)CC2)CC1 (configuration not stated)	1290
Cc1cc(C)c(C(=O)Nc2n[nH]c3nnc(-c4cccc(F)c4F)cc23)c(C)c1	1070

Reference: ChEMBL document CHEMBL1157539, “Thousands of chemical starting points for antimalarial lead identification” (Nature, 2010)
